Counter-ions that a name gives are not always drawn.
Key:
[1] = test system: full length TNFα (amino acids 1-233) fused to Gaussia Luciferase; test: Dox Induced TNFα-FL-Gluc Assay; type: cell-based; conditions: 24 hr, 293FRT/TO; read-out: 24 hr Dox Inducible TNFaFLGluc 293FRT/TO: Mean IC50
Text: (§1) FIp-In 293 T-REx™ cells were transfected with pcDNA™5/FRT/TO plasmid inserted with cDNA encoding Gaussia Luciferase fused to the 3′ end of cDNA encoding full length TNFα (amino acids 1-233). Transfected cells were selected for resistance to the selectable markers Hygromycin and Blasticidin to create a stable cell line that contained the TNFα-FL/Gaussia Luciferase cDNA insert whose expression was regulated under the T-REx™ system. The day before assay, cells were trypsinized and plated in 384-well tissue culture plates. The next day, compound dilutions in DMSO/media containing doxycycline were added to the wells and incubated at 37° C., 5% CO2.
(§2) For chemical structures that include one or more stereoisomers, but are illustrated without indicating stereochemistry, the assay data refers to a mixture of stereoisomers.

[2] = test system: multiple myeloma cell line NCl-H929; test: H929 Cell Viability Assay; type: cell-based, human; conditions: Homo sapiens, NCI-H929, 48 h, H929, read-out: 48 hr H929 Viability Celltiter-Glo: Mean EC50
Description: The human multiple myeloma cell line NCl-H929 was cultured in Advanced RPMI 1640 media (Gibco®) supplemented with 6% fetal bovine serum, 2 mM Glutamine, and 1× Penicillin/Streptomycin. On the day of assay, cells were resuspended in RPMI 1640 media supplemented with 10% fetal bovine serum, 2 mM Glutamine, and 1× Penicillin/Streptmycin and plated in 384-well tissue culture plates and treated with compound dilutions in DMSO/media. Plates were incubated at 37° C., 5% CO2 for 48 hours. After 48 hours, Celltiter-Glo® (Promega) was added to each well and luciferase signal was quantified using Tecan Infinite M1000 Pro for cell viability determination.
as §2

[3] = In Vitro Microsome Stability Assay (human); type: in vitro ADME; conditions: human, 30 min, NADPH
Description: (§3) Potassium phosphate (423 μL of a 0.1 M solution) was added to 8-strip deep well tubes followed by human, mouse, rat, or monkey microsomes (25 μL of a 20 mg/mL solution). The tubes were then placed on ice and the test article (2 μL of a 0.25 mM solution in DMSO) was added. The mixture was preincubated at 37° C. for 3 to 5 minutes (shaking at 150 rpm) then the reaction was initiated by adding 50 μL NADPH. An aliquot of samples (100 μL) were collected at 0 and 30 min and 200 μL of an acetonitrile mixture containing IS (compound 914) was added to quench the reaction. After centrifuging for 10 min at 4000 rpm, a mixed solution of the 20 μL of the supernatant (20 μL) plus 100 μL ACN/H2O (1:1) were injected for LC-MS/MS analysis. Liver microsome stability is assessed by the % remaining of compound at 30 min which is calculated using the following equation: [(AUCanalyteT=30/AUCIS)/(AUCanalyteT=0/AUCIS)]*100
as §2

[4] = test system: multiple myeloma cell line U266B1; test: U266 Cell Viability Assay; type: cell-based, human; conditions: Homo sapiens, U-266; 48 hr, U266; read-out: 48 hr U266 Viability Celltiter-Glo: Mean EC50
Description: The human multiple myeloma cell line U266B1 was cultured in RPMI 1640 media supplemented with 10% fetal bovine serum, 2 mM Glutamine, and 1× Penicillin/Streptomycin. Cells were plated in 384-well tissue culture plates and treated with compound dilutions in DMSO/media. Plates were incubated at 37° C., 5% CO2 for 48 hours. After 48 hours, Celltiter-Glo® (Promega) was added to each well and luciferase signal was quantified using Tecan Infinite M1000 Pro for cell viability determination.
For chemical structures that include one or more stereoisomers, but are illustrated without indicating stereochemistry, the assay data refers to a mixture of stereoisomers

[5] = In Vitro Microsome Stability Assay (mouse); type: in vitro ADME; conditions: mouse, 30 min, NADPH
Description: as §3, §2

[6] = test system: PD1 signal sequence plus 10 amino acids fused to Gaussia Luciferase (PD1-ss+10aa/Gaussia Luciferase); test: Dox Induced PD1-ss-Gluc Assay; type: cell-based; conditions: 24 hr, 293FRT/TO; read-out: 24 hr Dox Inducible PD1ssGluc 293FRT/TO: Mean IC50
Text: as §1, with “PD1 signal sequence plus 10 amino” for “full length TNFα (amino”, “(N-[…]-C) (SEQ ID NO: 1).” for “1-233).”, “PD1-ss+10aa/Gaussia” for “TNFα-FL/Gaussia”
as §2

[7] = In Vitro Microsome Stability Assay (monkey); type: in vitro ADME; conditions: monkey, 30 min, NADPH
Description: as §3, §2

[8] = In Vitro Microsome Stability Assay (rat); type: in vitro ADME; conditions: rat, 30 min, NADPH
Description: as §3, §2

| Compound | IC50 [1] | EC50 [2] | Liver Microsome Stability-% Left after 30 min w/ NADPH (%) Human [3] | EC50 [4] | Liver Microsome Stability-% Left after 30 min w/ NADPH (%) Mouse [5] | IC50 [6] | Liver Microsome Stability-% Left after 30 min w/ NADPH (%) Monkey [7] | Liver Microsome Stability-% Left after 30 min w/ NADPH (%) Rat [8] |
| --- | --- | --- | --- | --- | --- | --- | --- | --- |
| COc1ccc(S(=O)(=O)N2CCCN(CC3CCCCC3)CCCN(S(=O)(=O)N3CCCCC3)CC3(CC3)C2)cc1 [A31, 9-(cyclohexylmethyl)-5-(4-methoxybenzenesulfonyl)-13-(piperidine-1-sulfonyl)-5,9,13-triazaspiro[2.11]tetradecane] | > 25 µM | > 25 µM | 0.05% | > 25 µM | 0.25% | 0.619 µM | 0.03% | 0.09% |
| COc1cccc(S(=O)(=O)N2CCCN(CC3CCCCC3)CCCN(S(=O)(=O)N3CCCCC3)CC3(CC3)C2)c1 [A32, 9-(cyclohexylmethyl)-5-(3-methoxybenzenesulfonyl)-13-(piperidine-1-sulfonyl)-5,9,13-triazaspiro[2.11]tetradecane] | > 25 µM | > 25 µM | 0.06% | > 25 µM | 0.51% | > 25 µM | 0.09% | 0.27% |
| COc1ccccc1S(=O)(=O)N1CCCN(CC2CCCCC2)CCCN(S(=O)(=O)N2CCCCC2)CC2(CC2)C1 [A33, 9-(cyclohexylmethyl)-5-(2-methoxybenzenesulfonyl)-13-(piperidine-1-sulfonyl)-5,9,13-triazaspiro[2.11]tetradecane] | > 25 µM | > 25 µM | 0.05% | > 25 µM | 0.08% | > 25 µM | 0.07% | 0.13% |
| O=S(=O)(c1ccccc1)N1CCCN(CC2CCCCC2)CCCN(S(=O)(=O)N2CCCCC2)CC2(CC2)C1 [A34, 5-(benzenesulfonyl)-9-(cyclohexylmethyl)-13-(piperidine-1-sulfonyl)-5,9,13-triazaspiro[2.11]tetradecane] | > 25 µM | > 25 µM | 0.03% | > 25 µM | 0.24% | > 25 µM | 0.09% | 0.12% |
| C=C1CN(S(=O)(=O)c2ccc(N(C)C)cc2)CCCN(CC2CCCCC2)CCCN(S(=O)(=O)N2CCC(Oc3ccccc3)CC2)C1 [A37, 4-{[9-(cyclohexylmethyl)-3-methylidene-5-[(4-phenoxypiperidin-1-yl)sulfonyl]-1,5,9-triazacyclododecan-1-yl]sulfonyl}-N,N-dimethylaniline] | > 25 µM | > 25 µM | 8.26% | > 25 µM | 6.03% | 0.202 µM | 5.69% | 13.5% |
| C=C1CN(S(=O)(=O)c2ccc(N(C)C)cc2)CCCN(CC2CCCCC2)CCCN(S(=O)(=O)N2CCCC(c3ccccc3)C2)C1 (stereo not shown) [A38, 4-{[9-(cyclohexylmethyl)-3-methylidene-5-[(3-phenylpiperidin-1-yl)sulfonyl]-1,5,9-triazacyclododecan-1-yl]sulfonyl}-N,N-dimethylaniline] | 5.49 µM | > 11.8 µM | 11.4% | > 25 µM | 12.6% | 0.0751 µM | 9.04% | 24.2% |
| C=C1CN(S(=O)(=O)c2ccc(N(C)C)cc2)CCCN(CC2CCCCC2)CCCN(S(=O)(=O)N2CCC(C#N)CC2)C1 [A39, 1-{[9-(cyclohexylmethyl)-5-[4-(dimethylamino)benzenesulfonyl]-3-methylidene-1,5,9-triazacyclododecan-1-yl]sulfonyl}piperidine-4-carbonitrile] | > 25 µM | > 25 µM | 0.05% | 10.4 µM | 0.26% | 0.761 µM | 0.11% | 6% |
| CN(C)c1ccc(S(=O)(=O)N2CCCN(CC3CCCCC3)CCCN(S(=O)(=O)N3CCCCC3)CC3(CC3)C2)c(F)c1 [A40] | > 15.1 µM | > 25 µM | 0.04% | > 25 µM | 0.19% | 0.308 µM | 0.04% | 0.12% |
| O=S(=O)(C1CCCCC1)N1CCCN(CC2CCCCC2)CCCN(S(=O)(=O)N2CCCCC2)CC2(CC2)C1 [A41] | > 25 µM | > 25 µM | 0.08% | > 25 µM | 0.2% | 17.5 µM | 0.1% | 0.14% |
| CN(C)c1ccc(S(=O)(=O)N2CCCN(CC3CCCCC3)CCCN(S(=O)(=O)N3CCC(c4ccccc4)CC3)CCC2)cc1 [A42, 4-{[5-(cyclohexylmethyl)-9-[(4-phenylpiperidin-1-yl)sulfonyl]-1,5,9-triazacyclododecan-1-yl]sulfonyl}-N,N-dimethylaniline] | > 25 µM | > 25 µM | 2.65% | > 25 µM | 0.79% | 0.696 µM | 0.81% | 7.69% |
| CC1CN(S(=O)(=O)c2ccc(N(C)C)cc2)CCCN(CC2CCCCC2)CCCN(S(=O)(=O)N2CCC(c3ccccc3)CC2)C1 (stereo not shown) [A44, 4-{[9-(cyclohexylmethyl)-3-methyl-5-[(4-phenylpiperidin-1-yl)sulfonyl]-1,5,9-triazacyclododecan-1-yl]sulfonyl}-N,N-dimethylaniline hydrochloride] | 12.7 µM | > 25 µM | 47.6% | > 25 µM | 43.8% | 0.132 µM | 38% | 54% |
